Assay results reported in patent publication US20070026026A1 (priority 2005, published 2007).

Tests used:
[1] = Another study (not described): PG and PEG 400 effect on stability of losartan potassium; assay type: physicochemical
Description: Therefore, in one embodiment PG is preferred over PEG 400.

[2] = Example 2.3 stability of saccharin-containing compositions at 50° C. (HPLC); assay type: physicochemical; conditions: for stability of losartan (percent active): saccharin sodium, 50° C.
Protocol: Two different concentrations of glycerin (30 percent and 40 percent by volume) and 2 different pHs of the phosphate buffer (7.4 and 8.2) were studied. Four different compositions that contained saccharin were prepared and analyzed. The materials used were losartan potassium; saccharin sodium; propylene glycol (PG); glycerin; and potassium phosphate buffer (PPB) prepared in-house. […] Three mL of PG were then added to the vortexed mixture, (17-X) mL of glycerin added, and this mixture vortexed for 2 minutes. X represents the amount in mL of PPB added to provide 17 mL. Each sample was then stored at 50° C. and evaluated by HPLC periodically.

[3] = Example 1.1 solubility of losartan potassium with and without buffering agent (visual); assay type: physicochemical; conditions: for solubility: thermodynamic from solid, visual
Protocol: After 24 hours, the samples were examined. […] Formulations at these pHs of about 7 or greater should prevent precipitation of the drug.

[4] = Example 2.2 C stability with PG, glycerin and xylitol at 50° C. (HPLC); assay type: physicochemical; conditions: after about 1 month at 50° C.
Protocol: Even with 30 percent glycerin present, in some embodiments it is desired to add additional sweetener as the composition may not be sweet enough for some patients. Accordingly, a stronger sweetener was considered for use in the composition. […] Thus, the stability of a composition of propylene glycol (PG), glycerin, and xylitol was studied and evaluated. […] PG (1.5 mL) was then added, this mixture was vortexed for 1 minute, 3 mL of glycerin was added, and this mixture was finally vortexed for 1 minute. […] Four different formulations were prepared and analyzed. Each sample was evaluated by HPLC. The samples were then stored at 50° C. for about 1 month and analyzed periodically.

[5] = cited from earlier work
[6] = Example 2.1 stability of losartan potassium in phosphate buffers at 50° C. (HPLC); assay type: physicochemical; conditions: for stability (percent active on a weight basis): 50° C.; for degradation of the original losartan: pH 7.4
Protocol: The three variables were the pH of the buffer, cation of the buffer, and concentration of the phosphate salt in the buffer. The pHs studied were 7.4 and 8.2; the cations studied were potassium and sodium; and the concentrations studied were 10 mM and 100 mM.
The materials used were sodium phosphate buffer (SPB) and potassium phosphate buffer (PPB) prepared in-house and losartan potassium. […] A sample of each solution was taken and analyzed by HPLC. The different solutions were then stored at 50° C. […] The stability (measured as percent active on a weight

[7] = Example 2.2 B stability with PG and glycerin or PG and PEG 400 at 50° C. (HPLC); assay type: physicochemical; conditions: for degradation: after 816 hours at 50° C.
Protocol: X represents the amount in mL of SPB added to provide 8.5 mL. […] Five different formulations were prepared and analyzed. Each sample was evaluated by HPLC. The samples were then stored at 50° C. for about 1 month and analyzed periodically.

[8] = Example 2.2 A stability of losartan potassium in SPB with propylene glycol at 50° C. (HPLC); assay type: physicochemical; conditions: for degradation: after more than 1 month (816 hours) at 50° C.
Protocol: X represents the amount in mL of SPB added to provide 10 mL. […] Each formulation was evaluated by HPLC. The samples were then stored at 50° C. for about 1 month and analyzed periodically.

[9] = Example 1.2 solubility of losartan potassium in sodium phosphate buffers by HPLC; assay type: physicochemical; conditions: for solubility at 0 h / solubility at 48 h / solubility at 480 h: sodium phosphate buffer, aqueous buffer, thermodynamic from solid, room temperature, HPLC
Description: The materials used were sodium phosphate buffer (SPB) prepared in-house and losartan potassium. […] A sample of each solution was then taken and analyzed by HPLC. […] Each sample was stored at room temperature and data was collected as a function of time.

CCCCc1nc(Cl)c(CO)n1Cc1ccc(-c2ccccc2-c2nnn[nH]2)cc1.[K] [losartan potassium, 2-butyl-4-chloro-1-[p-(o-1H-tetrazol-5-ylphenyl)benzyl]imidazole-5-methanol monopotassium salt]
effect of PEG 400 on stability ([1]; in SPB): improve the stability | effect of PG on stability ([1]; in SPB): improve the stability | effect of PEG 400 on stability ([1]; in water): did not improve the stability | stability of losartan (percent active) ([2]; 30% glycerin, PPB pH = 7.4, PG, 0 hour): 99.88% | stability of losartan (percent active) ([2]; 30% glycerin, PPB pH = 7.4, PG, 72 hours): 99.91% | stability of losartan (percent active) ([2]; 30% glycerin, PPB pH = 7.4, PG, 288 hours): 99.88% | stability of losartan (percent active) ([2]; 30% glycerin, PPB pH = 7.4, PG, 1152 hours): 99.65% | stability of losartan (percent active) ([2]; 30% glycerin, PPB pH = 8.2, PG, 0 hour): 99.88% | stability of losartan (percent active) ([2]; 30% glycerin, PPB pH = 8.2, PG, 72 hours): 99.88% | stability of losartan (percent active) ([2]; 30% glycerin, PPB pH = 8.2, PG, 288 hours): 99.89% | stability of losartan (percent active) ([2]; 30% glycerin, PPB pH = 8.2, PG, 1152 hours): 99.86% | stability of losartan (percent active) ([2]; 40% glycerin, PPB pH = 7.4, PG, 0 hour): 99.88% | stability of losartan (percent active) ([2]; 40% glycerin, PPB pH = 7.4, PG, 72 hours): 99.88% | stability of losartan (percent active) ([2]; 40% glycerin, PPB pH = 7.4, PG, 288 hours): 99.88% | stability of losartan (percent active) ([2]; 40% glycerin, PPB pH = 7.4, PG, 1152 hours): 99.73% | stability of losartan (percent active) ([2]; 40% glycerin, PPB pH = 8.2, PG, 0 hour): 99.88% | stability of losartan (percent active) ([2]; 40% glycerin, PPB pH = 8.2, PG, 72 hours): 99.88% | stability of losartan (percent active) ([2]; 40% glycerin, PPB pH = 8.2, PG, 288 hours): 99.92% | stability of losartan (percent active) ([2]; 40% glycerin, PPB pH = 8.2, PG, 1152 hours): 99.82% | degradation in words ([2]; saccharin-containing compositions, after 12 days (288 hours) and even at 1152 hours at 50° C.): Minimal degradation | crystals after storage of the solubility sample ([3]; SPB pH 6.2, stored at 50° C. overnight, examined after 24 hours): crystals were observed | solubility ([3]; organic solvent or mixture, Ethanol): 130000 µg/mL | solubility ([3]; sodium phosphate buffer, aqueous buffer, SPB 10 mM, pH 1.9): 48 µg/mL | solubility ([3]; sodium phosphate buffer, aqueous buffer, SPB 10 mM, pH 6.2): > 241000 µg/mL | solubility ([3]; sodium phosphate buffer, aqueous buffer, SPB 10 mM, pH 7.2): 300000 µg/mL | solubility ([3]; sodium phosphate buffer, aqueous buffer, SPB 10 mM, pH 8.2): > 253000 µg/mL | solubility ([3]; Water, pH 5.5): > 243000 µg/mL | solubility ([3]; water with HCl, aqueous buffer, Water + HCl, pH 2.1): 280 µg/mL | solubility ([3]; water with NaOH, aqueous buffer, Water + NaOH, pH 11.8): > 239000 µg/mL | degradation ([4]; 5 mg/mL, 1 percent xylitol): about 0.45% | degradation ([4]; 5 mg/mL, 2 percent xylitol): about 0.5% | degradation ([4]; 25 mg/mL, 1 percent xylitol): approximately 0.7% | degradation ([4]; 25 mg/mL, 2 percent xylitol): approximately 0.7% | solubility in alcohols [5]: soluble | solubility in chloroform [5]: practically insoluble | solubility in common organic solvents, such as acetonitrile and methylethyl ketone [5]: slightly soluble | solubility in water [5]: freely soluble | stability (percent active on a weight basis) ([6]; PPB, 10 mM, pH = 7.4, 0 hours): 99.93% | stability (percent active on a weight basis) ([6]; PPB, 10 mM, pH = 7.4, 24 hours): 99.90% | stability (percent active on a weight basis) ([6]; PPB, 10 mM, pH = 7.4, 264 hours): 99.14% | stability (percent active on a weight basis) ([6]; PPB, 10 mM, pH = 7.4, 672 hours): 98.74% | stability (percent active on a weight basis) ([6]; PPB, 100 mM, pH = 7.4, 0 hours): 99.93% | stability (percent active on a weight basis) ([6]; PPB, 100 mM, pH = 7.4, 24 hours): 99.90% | stability (percent active on a weight basis) ([6]; PPB, 100 mM, pH = 7.4, 264 hours): 99.32% | stability (percent active on a weight basis) ([6]; PPB, 100 mM, pH = 7.4, 672 hours): 98.84% | degradation of the original losartan ([6]; SPB 10 mM, after about 1 month at 50° C.): around 1.5% | degradation of the original losartan ([6]; SPB 100 mM, after about 1 month at 50° C.): about 1% | stability (percent active on a weight basis) ([6]; SPB, 10 mM, pH = 7.4, 0 hours): 99.96% | stability (percent active on a weight basis) ([6]; SPB, 10 mM, pH = 7.4, 24 hours): 99.90% | stability (percent active on a weight basis) ([6]; SPB, 10 mM, pH = 7.4, 264 hours): 99.12% | stability (percent active on a weight basis) ([6]; SPB, 10 mM, pH = 7.4, 672 hours): 98.49% | stability (percent active on a weight basis) ([6]; SPB, 10 mM, pH = 8.2, 0 hours): 99.93% | stability (percent active on a weight basis) ([6]; SPB, 10 mM, pH = 8.2, 24 hours): 99.91% | stability (percent active on a weight basis) ([6]; SPB, 10 mM, pH = 8.2, 264 hours): 99.68% | stability (percent active on a weight basis) ([6]; SPB, 10 mM, pH = 8.2, 672 hours): 99.59% | stability (percent active on a weight basis) ([6]; SPB, 100 mM, pH = 7.4, 0 hours): 99.93% | stability (percent active on a weight basis) ([6]; SPB, 100 mM, pH = 7.4, 24 hours): 99.90% | stability (percent active on a weight basis) ([6]; SPB, 100 mM, pH = 7.4, 264 hours): 99.34% | stability (percent active on a weight basis) ([6]; SPB, 100 mM, pH = 7.4, 672 hours): 98.90% | stability (percent active on a weight basis) ([6]; SPB, 100 mM, pH = 8.2, 0 hours): 99.93% | stability (percent active on a weight basis) ([6]; SPB, 100 mM, pH = 8.2, 24 hours): 99.91% | stability (percent active on a weight basis) ([6]; SPB, 100 mM, pH = 8.2, 264 hours): 99.77% | stability (percent active on a weight basis) ([6]; SPB, 100 mM, pH = 8.2, 672 hours): 99.66% | degradation ([6]; SPB, pH of 8.2, after about 1 month at 50° C.): about 0.4% | degradation ([7]; SPB with 15 percent PG and 10 percent PEG 400): 0.33% | degradation ([7]; SPB with 15 percent PG and up to 30 percent glycerin): less than 0.5% | effect on stability in words ([7]; increasing PEG 400 to 30 percent in the composition, 50° C.): decreased the stability | degradation ([8]; 10 percent PG in SPB pH 7.2): less than 0.4% | degradation ([8]; 15 percent PG in SPB pH 7.2): less than 0.4% | stability in words ([8]; 30 percent PG in SPB pH 7.2, 50° C.): unexpectedly good | precipitation on storage ([9]; SPB pH of 6.2): some re-precipitation was observed | solubility in words ([9]; pH under 6.2): practically insoluble | precipitation on storage ([9]; pHs of 7.4 and higher): no precipitation was observed | solubility at 0 h ([9]; SPB pH = 1.7): 1070 µg/mL | solubility at 48 h ([9]; SPB pH = 1.7): 152 µg/mL | solubility at 480 h ([9]; SPB pH = 1.7): 30 µg/mL | solubility at 0 h ([9]; SPB pH = 6.2): 1620 µg/mL | solubility at 48 h ([9]; SPB pH = 6.2): 1650 µg/mL | solubility at 480 h ([9]; SPB pH = 6.2): 60 µg/mL | solubility at 0 h ([9]; SPB pH = 7.4): > 250000 µg/mL | solubility at 48 h ([9]; SPB pH = 7.4): > 250000 µg/mL | solubility at 480 h ([9]; SPB pH = 7.4): > 250000 µg/mL | solubility at 0 h ([9]; SPB pH = 8.2): > 250000 µg/mL | solubility at 48 h ([9]; SPB pH = 8.2): > 250000 µg/mL | solubility at 480 h ([9]; SPB pH = 8.2): > 250000 µg/mL
